{"source": "paper PMC12892976", "about": "“Alkylation-based optimization of antifungal FPPS inhibitors yields a potent, broad-spectrum lipophilic zoledronate derivative” (mBio, 2025)", "key": {"Nannizzia nana [1]": {"test_system": "Nannizzia nana", "test": "MIC broth microdilution (CLSI)", "assay_type": "cell-based", "conditions": "Nannizzia nana R-133", "description": "(§1) Antifungal susceptibility was determined by broth microdilution according to the CLSI guidelines described in M27-Ed4 ([16])."}, "Aspergillus terreus [2]": {"test_system": "Aspergillus terreus", "test": "MIC broth microdilution (CLSI)", "assay_type": "cell-based", "conditions": "Aspergillus terreus 75-16-089-2500", "description": "as §1"}, "Microsporum canis [3]": {"test_system": "Microsporum canis", "test": "MIC broth microdilution (CLSI)", "conditions": "Microsporum canis R-232", "description": "as §1"}, "Aspergillus udagawae [4]": {"test_system": "Aspergillus udagawae", "test": "MIC broth microdilution (CLSI)", "assay_type": "cell-based", "conditions": "Aspergillus udagawae 8G81", "description": "as §1"}, "Candida dubliniensis": {"test_system": "Candida dubliniensis", "test": "checkerboard drug interaction (FICI, MICc)", "assay_type": "cell-based", "description": "(§2) Drug interactions between antifungals and FPPS inhibitors were investigated using a simplified checkerboard diagonal screening method ([45]). […] FICIs were determined according to the Loewe additivity model ([17])."}, "Aspergillus lentulus": {"test_system": "Aspergillus lentulus", "test": "checkerboard drug interaction (FICI, MICc)", "assay_type": "cell-based", "description": "as §2"}, "Aspergillus felis": {"test_system": "Aspergillus felis", "test": "MIC broth microdilution (CLSI)", "assay_type": "cell-based", "conditions": "Aspergillus felis IHE87256683D6", "description": "as §1"}, "Aspergillus niger [5]": {"test_system": "Aspergillus niger", "test": "MIC broth microdilution (CLSI)", "assay_type": "cell-based", "conditions": "Aspergillus niger 111", "description": "as §1"}, "Trichophyton tonsurans": {"test_system": "Trichophyton tonsurans", "test": "checkerboard drug interaction (FICI, MICc)", "assay_type": "cell-based", "description": "as §2"}, "[6]": {"test_system": "Cryptococcus deneoformans", "test": "MIC broth microdilution (CLSI)", "assay_type": "cell-based", "conditions": "Cryptococcus deneoformans JEC21", "description": "as §1"}, "Aspergillus terreus [7]": {"test_system": "Aspergillus terreus", "test": "checkerboard drug interaction (FICI, MICc)", "assay_type": "cell-based", "description": "as §2"}, "Aspergillus niger [8]": {"test_system": "Aspergillus niger", "test": "checkerboard drug interaction (FICI, MICc)", "assay_type": "cell-based", "description": "as §2"}, "Cryptococcus gattii": {"test_system": "Cryptococcus gattii", "test": "checkerboard drug interaction (FICI, MICc)", "assay_type": "cell-based", "description": "as §2"}, "Paraphyton cookei [9]": {"test_system": "Paraphyton cookei", "test": "MIC broth microdilution (CLSI)", "assay_type": "cell-based", "conditions": "Paraphyton cookei R-639", "description": "as §1"}, "Epidermophyton floccosum": {"test_system": "Epidermophyton floccosum", "test": "MIC broth microdilution (CLSI)", "assay_type": "cell-based", "conditions": "Epidermophyon floccosum R-113", "description": "as §1"}, "Nannizzia gypsea [10]": {"test_system": "Nannizzia gypsea", "test": "checkerboard drug interaction (FICI, MICc)", "description": "as §2"}, "Candida parapsilosis": {"test_system": "Candida parapsilosis", "test": "checkerboard drug interaction (FICI, MICc)", "assay_type": "cell-based", "description": "as §2"}, "[11]": {"test_system": "Aspergillus frankstonensis", "test": "MIC broth microdilution (CLSI)", "assay_type": "cell-based", "conditions": "Aspergillus frankstonensis DTO 341-F3", "description": "as §1"}, "Pichia kudriavzevii [12]": {"test_system": "Pichia kudriavzevii", "test": "MIC broth microdilution (CLSI)", "assay_type": "cell-based", "conditions": "Pichia kudriavzavii ATCC 6258", "description": "Antifungal susceptibility was determined by broth microdilution according to the CLSI guidelines described in M27-Ed4 ([16]). […] MFC was determined by back-plating drug-treated cultures from MIC broths onto SDA plates. The MFC was defined as the lowest concentration from which no colonies could be cultured."}, "[13]": {"test_system": "Cryptococcus bacillisporus", "test": "MIC broth microdilution (CLSI)", "assay_type": "cell-based", "conditions": "Cryptococcus bacillisporus NIH179", "description": "as §1"}, "Nannizzia gypsea [14]": {"test_system": "Nannizzia gypsea", "test": "MIC broth microdilution (CLSI)", "assay_type": "cell-based", "conditions": "Nannizzia gypsea R-131", "description": "as §1"}, "Aspergillus parafelis [15]": {"test_system": "Aspergillus parafelis", "test": "checkerboard drug interaction (FICI, MICc)", "description": "as §2"}, "Microsporum canis [16]": {"test_system": "Microsporum canis", "test": "checkerboard drug interaction (FICI, MICc)", "assay_type": "cell-based", "description": "as §2"}, "Trichophyton soudanense": {"test_system": "Trichophyton soudanense", "test": "MIC broth microdilution (CLSI)", "conditions": "Trichophyton soudanense R-167", "description": "as §1"}, "Mucor circinelloides": {"test_system": "Mucor circinelloides", "test": "MIC broth microdilution (CLSI)", "assay_type": "cell-based", "conditions": "Mucor circinelloides 80-14-240-5007", "description": "as §1"}, "[17]": {"test_system": "Cryptococcus bacillisporus", "test": "checkerboard drug interaction (FICI, MICc)", "assay_type": "cell-based", "description": "as §2"}, "Cryptococcus tetragattii": {"test_system": "Cryptococcus tetragattii", "test": "MIC broth microdilution (CLSI)", "assay_type": "cell-based", "conditions": "Cryptococcus tetragattii WM779", "description": "as §1"}, "Fusarium oxysporum": {"test_system": "Fusarium oxysporum", "test": "checkerboard drug interaction (FICI, MICc)", "assay_type": "cell-based", "description": "as §2"}, "Aspergillus udagawae [18]": {"test_system": "Aspergillus udagawae", "test": "checkerboard drug interaction (FICI, MICc)", "assay_type": "cell-based", "description": "as §2"}, "Scedosporium apiospermum": {"test_system": "Scedosporium apiospermum", "test": "checkerboard drug interaction (FICI, MICc)", "assay_type": "cell-based", "description": "as §2"}, "Aspergillus parafelis [19]": {"test_system": "Aspergillus parafelis", "test": "MIC broth microdilution (CLSI)", "assay_type": "cell-based", "conditions": "Aspergillus parafelis DTO 341-F2", "description": "as §1"}, "Fusarium solani": {"test_system": "Fusarium solani", "test": "checkerboard drug interaction (FICI, MICc)", "assay_type": "cell-based", "description": "as §2"}, "Nannizzia nana [20]": {"test_system": "Nannizzia nana", "test": "checkerboard drug interaction (FICI, MICc)", "assay_type": "cell-based", "description": "as §2"}, "Pichia kudriavzevii [21]": {"test_system": "Pichia kudriavzevii", "test": "checkerboard drug interaction (FICI, MICc)", "assay_type": "cell-based", "description": "as §2"}, "Candida auris": {"test_system": "Candida auris", "test": "MIC broth microdilution (CLSI)", "assay_type": "cell-based", "conditions": "Candida auris CDC-0384", "description": "as §1"}, "Paraphyton cookei [22]": {"test_system": "Paraphyton cookei", "test": "checkerboard drug interaction (FICI, MICc)", "description": "as §2"}}}
{"compound": "C[C@@H]1[C@H](O)[C@@H](C)/C=C/C=C/C=C/C=C/C=C/C=C/C=C/[C@H](O[C@@H]2O[C@H](C)[C@@H](O)[C@H](N)[C@@H]2O)C[C@@H]2O[C@](O)(C[C@@H](O)C[C@@H](O)[C@H](O)CC[C@@H](O)C[C@@H](O)CC(=O)O[C@H]1C)C[C@H](O)[C@H]2C(=O)O", "note": "[AMB, amphotericin B]", "values": [{"measurement": "MIC / MEC", "setting": "Nannizzia nana [1]", "value": 0.5, "unit": "µg/mL"}, {"measurement": "MIC / MEC", "setting": "Aspergillus terreus [2]", "value": 1, "unit": "µg/mL"}, {"measurement": "MIC / MEC", "setting": "Microsporum canis [3]", "value": 1, "unit": "µg/mL"}, {"measurement": "MIC / MEC", "setting": "Aspergillus udagawae [4]", "value": 2, "unit": "µg/mL"}, {"measurement": "antifungal MICc", "setting": "Candida dubliniensis; in combination with 10-ZOL", "value": 0.25}, {"measurement": "antifungal MICc", "setting": "Candida dubliniensis; in combination with ZOL", "value": 0.25}, {"measurement": "antifungal MICc", "setting": "Aspergillus lentulus; in combination with 10-ZOL", "value": 1}, {"measurement": "antifungal MICc", "setting": "Aspergillus lentulus; in combination with ZOL", "value": 2}, {"measurement": "MIC / MEC", "setting": "Aspergillus felis", "value": 4, "unit": "µg/mL"}, {"measurement": "MIC / MEC", "setting": "Aspergillus niger [5]", "value": 0.13, "unit": "µg/mL"}, {"measurement": "antifungal MICc", "setting": "Trichophyton tonsurans; in combination with 10-ZOL", "value": 0.25}, {"measurement": "antifungal MICc", "setting": "Trichophyton tonsurans; in combination with ZOL", "value": 0.25}, {"measurement": "MIC / MEC", "setting": "[6]", "value": 0.25, "unit": "µg/mL"}, {"measurement": "antifungal MICc", "setting": "Aspergillus terreus [7]; in combination with 10-ZOL", "value": 0.25}, {"measurement": "antifungal MICc", "setting": "Aspergillus terreus [7]; in combination with ZOL", "value": 0.5}, {"measurement": "antifungal MICc", "setting": "Aspergillus niger [8]; in combination with 10-ZOL", "value": 0.25}, {"measurement": "antifungal MICc", "setting": "Aspergillus niger [8]; in combination with ZOL", "value": 0.125}, {"measurement": "antifungal MICc", "setting": "Cryptococcus gattii; in combination with 10-ZOL", "value": 0.125}, {"measurement": "antifungal MICc", "setting": "Cryptococcus gattii; in combination with ZOL", "value": 0.25}, {"measurement": "MIC / MEC", "setting": "Paraphyton cookei [9]", "value": 1, "unit": "µg/mL"}, {"measurement": "MIC / MEC", "setting": "Epidermophyton floccosum", "value": 0.5, "unit": "µg/mL"}, {"measurement": "antifungal MICc", "setting": "Nannizzia gypsea [10]; in combination with 10-ZOL", "value": 0.5}, {"measurement": "antifungal MICc", "setting": "Nannizzia gypsea [10]; in combination with ZOL", "value": 0.25}, {"measurement": "antifungal MICc", "setting": "Candida parapsilosis; in combination with 10-ZOL", "value": 0.5}, {"measurement": "antifungal MICc", "setting": "Candida parapsilosis; in combination with ZOL", "value": 0.5}, {"measurement": "MIC / MEC", "setting": "[11]", "value": 2, "unit": "µg/mL"}, {"measurement": "MIC / MEC", "setting": "Pichia kudriavzevii [12]", "value": 0.5, "unit": "µg/mL"}, {"measurement": "MIC / MEC", "setting": "[13]", "value": 0.25, "unit": "µg/mL"}, {"measurement": "MIC / MEC", "setting": "Nannizzia gypsea [14]", "value": 0.5, "unit": "µg/mL"}, {"measurement": "antifungal MICc", "setting": "Aspergillus parafelis [15]; in combination with 10-ZOL", "value": 1}, {"measurement": "antifungal MICc", "setting": "Aspergillus parafelis [15]; in combination with ZOL", "value": 4}, {"measurement": "antifungal MICc", "setting": "Microsporum canis [16]; in combination with 10-ZOL", "value": 1}, {"measurement": "antifungal MICc", "setting": "Microsporum canis [16]; in combination with ZOL", "value": 0.5}, {"measurement": "MIC / MEC", "setting": "Trichophyton soudanense", "value": 0.5, "unit": "µg/mL"}, {"measurement": "MIC / MEC", "setting": "Mucor circinelloides", "value": 0.25, "unit": "µg/mL"}, {"measurement": "antifungal MICc", "setting": "[17]; in combination with 10-ZOL", "value": 0.125}, {"measurement": "antifungal MICc", "setting": "[17]; in combination with ZOL", "value": 1}, {"measurement": "MIC / MEC", "setting": "Cryptococcus tetragattii", "value": 0.5, "unit": "µg/mL"}, {"measurement": "antifungal MICc", "setting": "Fusarium oxysporum; in combination with 10-ZOL", "value": 1}, {"measurement": "antifungal MICc", "setting": "Fusarium oxysporum; in combination with ZOL", "value": 0.5}, {"measurement": "antifungal MICc", "setting": "Aspergillus udagawae [18]; in combination with 10-ZOL", "value": 0.25}, {"measurement": "antifungal MICc", "setting": "Aspergillus udagawae [18]; in combination with ZOL", "value": 0.25}, {"measurement": "antifungal MICc", "setting": "Scedosporium apiospermum; in combination with 10-ZOL", "value": 2}, {"measurement": "antifungal MICc", "setting": "Scedosporium apiospermum; in combination with ZOL", "value": 8}, {"measurement": "MIC / MEC", "setting": "Aspergillus parafelis [19]", "value": 4, "unit": "µg/mL"}, {"measurement": "antifungal MICc", "setting": "Fusarium solani; in combination with 10-ZOL", "value": 0.25}, {"measurement": "antifungal MICc", "setting": "Fusarium solani; in combination with ZOL", "value": 0.25}, {"measurement": "antifungal MICc", "setting": "Nannizzia nana [20]; in combination with 10-ZOL", "value": 1}, {"measurement": "antifungal MICc", "setting": "Nannizzia nana [20]; in combination with ZOL", "value": 0.25}, {"measurement": "antifungal MICc", "setting": "Pichia kudriavzevii [21]; in combination with 10-ZOL", "value": 0.25}, {"measurement": "antifungal MICc", "setting": "Pichia kudriavzevii [21]; in combination with ZOL", "value": 0.25}, {"measurement": "MIC / MEC", "setting": "Candida auris", "value": 2, "unit": "µg/mL"}, {"measurement": "antifungal MICc", "setting": "Paraphyton cookei [22]; in combination with 10-ZOL", "value": 1}, {"measurement": "antifungal MICc", "setting": "Paraphyton cookei [22]; in combination with ZOL", "value": 0.25}]}
